Results on eight molecules are retold here after PubChem BioAssay (NCI).

Among the test systems are A498 renal; CAKI-1 renal; CCRF-CEM leukemia; HCT-15 colon; HT29 colon; K-562 leukemia; KM12 colon; MDA-N; NCI-H460 lung; OVCAR-5 ovarian; PC-3 prostate; SK-MEL-2 melanoma; SK-OV-3 ovarian; SN12C renal; SNB-75 CNS; TK-10 renal; UACC-62 melanoma.
What all share (assay): inhibition of tumour cell growth, NCI panel, 48 h

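Compound exposure: 48 hours, 5 concentrations, 96-well plates. The concentration for full growth arrest is given as TGI.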 Bounds are passed on as bounds.

Turning to `CC(=O)NC1CCC(NC(=O)OC(C)(C)C)C(NC(=O)OC(C)(C)C)C1` (stereo unspecified), the TGI with A498 renal, with CAKI-1 renal, with CCRF-CEM leukemia, in the experiment with HCT-15 colon, in the experiment on HT29 colon and in the experiment on K-562 leukemia was above 100 µM in each case. Further, the TGI in the experiment with KM12 colon, with MDA-N, with NCI-H460 lung, in the experiment on OVCAR-5 ovarian, with PC-3 prostate and with SK-MEL-2 melanoma was above 100 µM throughout. The TGI with SK-OV-3 ovarian, in the experiment with SN12C renal, with SNB-75 CNS, in the experiment with TK-10 renal and in the experiment with UACC-62 melanoma was above 100 µM in each case.
For the molecule `CC(=O)O/C(=C(/C#N)C(=O)O)C1C(C(=O)O)C(c2ccccc2[N+](=O)[O-])C=C(c2ccco2)N1c1ccncc1` (stereo unspecified), the TGI in the experiment on A498 renal was 25 µM; in the experiment on CAKI-1 renal, 14.1 µM; with CCRF-CEM leukemia, above 100 µM; with HCT-15 colon it was 4.83 µM; in the experiment on HT29 colon, 3.16 µM; in the experiment with K-562 leukemia, above 100 µM. Besides, the TGI in the experiment on KM12 colon is 3.14 µM; in the experiment with MDA-N, 7.26 µM; with NCI-H460 lung it was 19.3 µM; in the experiment on OVCAR-5 ovarian it was 27.4 µM; in the experiment on PC-3 prostate, 18.4 µM; with SK-MEL-2 melanoma, 22.2 µM. For the same molecule, the TGI was determined as 23.9 µM in the experiment on SK-OV-3 ovarian; 10.2 µM with SN12C renal; 20.1 µM in the experiment on SNB-75 CNS; 11.3 µM in the experiment with TK-10 renal; 17 µM in the experiment with UACC-62 melanoma.
In the case of `COc1ccc(CN=C2Nc3ccncc3S(=O)(=O)N2c2ccccc2)cc1`, the TGI in the experiment with A498 renal is above 100 µM; in the experiment on CAKI-1 renal, above 100 µM; in the experiment on CCRF-CEM leukemia, 82.4 µM; in the experiment on HCT-15 colon it was above 100 µM; in the experiment with HT29 colon it was above 100 µM; in the experiment with K-562 leukemia, 93.2 µM. Moreover, the TGI in the experiment on KM12 colon, in the experiment with MDA-N, in the experiment with NCI-H460 lung, with OVCAR-5 ovarian, in the experiment with PC-3 prostate and in the experiment with SK-MEL-2 melanoma was above 100 µM throughout. In addition, the TGI was above 100 µM in the experiment with SK-OV-3 ovarian; above 100 µM with SN12C renal; above 100 µM in the experiment with SNB-75 CNS; 59.9 µM in the experiment on TK-10 renal; above 100 µM in the experiment with UACC-62 melanoma.
Turning to `CO/N=C1/C(n2[nH]c(=O)n(-c3ccccc3)c2=O)C2C=CC1n1c(=O)n(-c3ccccc3)c(=O)n12` (stereo unspecified), the TGI in the experiment with A498 renal, in the experiment on CAKI-1 renal, in the experiment with CCRF-CEM leukemia, with HCT-15 colon, in the experiment on HT29 colon and in the experiment on K-562 leukemia was above 100 µM throughout. Also, the TGI with KM12 colon, in the experiment with MDA-N, in the experiment with NCI-H460 lung, with OVCAR-5 ovarian, with PC-3 prostate and with SK-MEL-2 melanoma was above 100 µM each time. The TGI in the experiment with SK-OV-3 ovarian, in the experiment on SN12C renal, in the experiment on SNB-75 CNS, in the experiment with TK-10 renal and in the experiment with UACC-62 melanoma was above 100 µM in each case.
With `CCCCCC(/C=N/NC(N)=S)C(O)(C(F)(F)F)C(F)(F)F` (stereo unspecified), the TGI in the experiment with A498 renal, in the experiment with CAKI-1 renal, with CCRF-CEM leukemia, with HCT-15 colon, in the experiment on HT29 colon and with K-562 leukemia was above 10 µM throughout. Moreover, the TGI in the experiment on KM12 colon, in the experiment with MDA-N, with NCI-H460 lung, in the experiment on OVCAR-5 ovarian, with PC-3 prostate and in the experiment with SK-MEL-2 melanoma was above 10 µM throughout. The TGI with SK-OV-3 ovarian, with SN12C renal, in the experiment with SNB-75 CNS, in the experiment on TK-10 renal and in the experiment on UACC-62 melanoma was above 10 µM each time.
As to `CC1(C)OC[C@@]2([C@@H]3CC[C@@H](C3)C2(C)C)N1O`, the TGI with A498 renal, in the experiment with CAKI-1 renal, in the experiment with CCRF-CEM leukemia, in the experiment with HCT-15 colon, with HT29 colon and in the experiment on K-562 leukemia was above 100 µM in each case. In addition, the TGI in the experiment on KM12 colon, in the experiment with MDA-N, with NCI-H460 lung, in the experiment on OVCAR-5 ovarian, in the experiment with PC-3 prostate and in the experiment on SK-MEL-2 melanoma was above 100 µM in each case. In addition, the TGI in the experiment on SK-OV-3 ovarian, in the experiment with SN12C renal, in the experiment on SNB-75 CNS, with TK-10 renal and in the experiment on UACC-62 melanoma was above 100 µM in each case.
In the case of `O=S(=O)(O)Nc1ccc(-c2nc3ccccc3s2)cc1Cl`, the TGI in the experiment with A498 renal, in the experiment with CAKI-1 renal, with CCRF-CEM leukemia, in the experiment with HCT-15 colon, in the experiment with HT29 colon and in the experiment with K-562 leukemia was above 100 µM throughout. Also, the TGI with KM12 colon, in the experiment with MDA-N, in the experiment with NCI-H460 lung, in the experiment on OVCAR-5 ovarian, in the experiment on PC-3 prostate and with SK-MEL-2 melanoma was above 100 µM in each case. Further, the TGI in the experiment on SK-OV-3 ovarian, in the experiment on SN12C renal, in the experiment on SNB-75 CNS, in the experiment on TK-10 renal and with UACC-62 melanoma was above 100 µM in each case.
For the molecule `CNC(=O)CNC(=O)CCC(=O)N(C)C`, the TGI in the experiment with A498 renal, with CAKI-1 renal, in the experiment on CCRF-CEM leukemia, with HCT-15 colon, in the experiment with HT29 colon and with K-562 leukemia was above 100 µM in each case. In addition, the TGI with KM12 colon, in the experiment with MDA-N, with NCI-H460 lung, with OVCAR-5 ovarian, with PC-3 prostate and in the experiment on SK-MEL-2 melanoma was above 100 µM throughout. In addition, the TGI with SK-OV-3 ovarian, in the experiment on SN12C renal, in the experiment with SNB-75 CNS, with TK-10 renal and in the experiment on UACC-62 melanoma was above 100 µM each time.
